From publication PMC12670396, “Crizotinib- or Ceritinib-Conjugated Platinum(IV) Prodrugs As Potent Multiaction Agents Inducing Antiproliferative Effects in 2D and 3D Cancer Cell Models” (Journal of Medicinal Chemistry, 2025)

Legend:
[1] = target: T1, MET (Homo sapiens, UniProt P08581); test: Western blot of MET phosphorylation state; assay type: cell-based; details: NCI-H2228 lysates, IC50 concentrations, 24 h
T1 construct: Western blot analysis of the phosphorylation state of ALK and MET; endogenous in cells; host or cells: NCI-H2228
T1 sequence (P08581 25-1390): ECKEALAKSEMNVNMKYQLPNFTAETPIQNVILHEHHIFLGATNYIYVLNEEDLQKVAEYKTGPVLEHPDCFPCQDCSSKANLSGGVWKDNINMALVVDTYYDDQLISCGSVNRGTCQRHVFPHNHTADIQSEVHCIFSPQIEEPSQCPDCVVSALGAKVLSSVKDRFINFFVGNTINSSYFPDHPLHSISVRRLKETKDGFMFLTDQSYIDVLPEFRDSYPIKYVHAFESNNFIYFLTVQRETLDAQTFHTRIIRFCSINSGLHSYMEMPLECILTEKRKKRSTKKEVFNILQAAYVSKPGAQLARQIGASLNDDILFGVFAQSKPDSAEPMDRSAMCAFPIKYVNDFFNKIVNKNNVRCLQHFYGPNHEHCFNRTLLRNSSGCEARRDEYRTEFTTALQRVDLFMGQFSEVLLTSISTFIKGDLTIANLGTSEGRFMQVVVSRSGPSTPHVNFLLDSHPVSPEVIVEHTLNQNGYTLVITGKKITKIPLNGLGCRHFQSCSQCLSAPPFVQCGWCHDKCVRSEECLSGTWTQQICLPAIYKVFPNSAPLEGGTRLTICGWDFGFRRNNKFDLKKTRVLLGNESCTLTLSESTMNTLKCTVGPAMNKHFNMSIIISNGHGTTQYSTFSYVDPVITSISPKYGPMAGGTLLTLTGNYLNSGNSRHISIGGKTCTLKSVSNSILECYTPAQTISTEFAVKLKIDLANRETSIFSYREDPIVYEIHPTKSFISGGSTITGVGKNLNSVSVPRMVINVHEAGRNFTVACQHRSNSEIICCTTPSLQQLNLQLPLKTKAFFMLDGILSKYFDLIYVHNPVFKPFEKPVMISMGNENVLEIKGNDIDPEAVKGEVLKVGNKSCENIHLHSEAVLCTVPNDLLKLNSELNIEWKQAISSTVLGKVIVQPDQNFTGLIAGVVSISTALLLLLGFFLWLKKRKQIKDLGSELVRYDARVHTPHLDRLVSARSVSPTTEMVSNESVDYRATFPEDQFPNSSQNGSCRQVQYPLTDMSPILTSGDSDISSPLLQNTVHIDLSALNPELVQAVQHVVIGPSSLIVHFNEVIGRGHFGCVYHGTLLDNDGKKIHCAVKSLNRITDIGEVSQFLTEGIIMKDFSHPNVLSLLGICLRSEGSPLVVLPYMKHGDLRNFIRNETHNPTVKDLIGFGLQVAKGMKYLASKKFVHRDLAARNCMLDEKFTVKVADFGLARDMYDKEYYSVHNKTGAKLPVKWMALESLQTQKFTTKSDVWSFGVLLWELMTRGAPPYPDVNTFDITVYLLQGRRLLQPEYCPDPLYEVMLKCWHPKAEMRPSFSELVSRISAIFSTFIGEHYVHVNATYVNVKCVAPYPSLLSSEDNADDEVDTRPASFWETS
Method: Whereas the signals of pALK and pMET are decreased in the presence of the tested compounds, the overall amount of ALK and MET is not markedly changed.
NCI-H2228 cells were seeded in 6-well plates at a density of 2 × 10^5 cells/well and incubated overnight. […] The cells were then harvested and lysed using RIPA lysis buffer supplemented with protease and phosphatase inhibitors as recommended by the manufacturer. Protein extracts were resolved with SDS-PAGE, transferred to a PVDF membrane, and the respective proteins were detected with specific antibodies (anti-phosphoALK, anti-ALK, anti-phosphoMET, anti-MET, and anti-GADPH) and HRP-conjugated secondary antibodies. The signals were obtained with SignalFire ECL Reagent and recorded with an Amersham680 reader.

[2] = tested on: NCI-H2228 cells; test: Phosphorylation of H2AX (γH2AX foci, confocal microscopy); assay type: cell-based, human; details: NCI-H2228, 3xIC50, 24 h
Source text: The cytotoxicity assay was also employed to determine whether DNA damage might be involved in the mechanism of action of the tested compounds. The Chinese hamster ovary MMC2 cell line harbors the ERCC3/XPB mutation, which renders it deficient in nucleotide excision repair (NER), whereas the parent line CHOK1 is proficient in this repair process. Thus, the MMC2 line is often more sensitive to agents causing DNA damage, especially NER-reparable DNA damage, than CHOK1. […] Phosphorylation of H2AX is a commonly used marker of DNA damage.
The nuclei were counter-stained with DAPI. The samples were mounted with ProLong Diamond antifade mountant, and the images were recorded on a Leica SP8 confocal microscope.

[3] = tested on: CT26 or NCI-H2228 cells; test: Release of ATP (CLSII bioluminescence assay); assay type: cell-based; details: IC50 concentrations, 20 h
Method: ATP release was analyzed using the CLSII bioluminescence assay kit (Roche) after treatment of CT26 or NCI-H2228 cells with the tested compounds at concentrations corresponding to their respective IC50 values (Figure A).
CT26 and NCI-H2228 cells were seeded in 48-well plates at a density of 5 × 10^4 cells/well and grown overnight. […] Then 50 μL of supernatant from the wells was transferred into a 96-well white plate (Corning) and processed using an ATP bioluminescence assay kit CLSII following the manufacturer’s instructions. Luminescence was measured with a SPARK multimode reader (TECAN).

[4] = tested on: NCI-H2228 cells; test: Cell cycle distribution (PI, flow cytometry); assay type: cell-based, human; details: NCI-H2228, 2 × IC50, 48 h
Method: The alterations in cell cycle profiles caused by the tested agents in NCI-H2228 cells may offer insight into their anticancer mechanism. To examine these changes, we utilized flow cytometry to analyze the cells treated with the representative agents (Figure and Figure S40).
It appears that the G2/M arrest is a common phenomenon in the crizotinib-containing group of NCI-H2228 cells under the conditions used.
Following 48 h of incubation, the cells were harvested and fixed with 70% ethanol. The next day, the cells were washed with PBS (2×) and stained with propidium iodide (PI) (50 μg mL^–1 with 100 μg mL^–1 RNase A) in Vindel’s solution (10 mM Tris-Cl (pH = 8.0), 10 mM NaCl, 0.1% Triton X-100) for 30 min at 37 °C. Cell cycle distribution was analyzed using flow cytometry (FACS Verse), 3 × 10^4 cells were analyzed following the exclusion of cell aggregates, and the data was analyzed with FCS Express 7 (DeNovo software, Glendale, CA). The results are expressed as MEAN from two experiments.

[5] = tested on: CT26 cells; test: Phagocytosis of treated CT26 cells by J774.A1 macrophages; assay type: cell-based, murine; details: CT26 treated at IC50 for 24 h, cocultivated 4 h, J774.A1:CT26 1:2
Method: Then, the cells in the samples were stained with CellTracker (red CMTPX; Thermo Fisher Scientific). At the same time, J774.A1 macrophages were stained with CellTracker (green CMFDA; ThermoFisher Scientific). […] Following the coincubation, the cells were harvested and analyzed with flow cytometry (BD FACS Verse). Total cell count was normalized to 3 × 10^4 macrophages. The data were analyzed with FCS Express 7 (DeNovo software; Glendale, CA).

[6] = tested on: hepatocyte-like cells (HLC); test: Cytotoxicity in hepatocyte-like cells, sulphorhodamine B assay; assay type: cell-based; details: hepatocyte-like cells from human pluripotent cells
Method: Growth inhibition activity in cancer cell lines was compared with the activity to inhibit the proliferation of normal (noncancerous) cells, namely MRC-5, IMR-90, hTERT-HPNE, and MCF10A cells. Selectivity indexes (SI) were calculated as (IC50 in noncancerous cells)/(average IC50 in cancer cells). […] We further assessed the toxicity of several of the compounds in hepatocyte-like cells (HLC) generated from human pluripotent cells.
Cytotoxicity in hepatocyte-like cells (HLC). STEMdiff Hepatocyte Kit was used to generate HLC from human pluripotent stem cells. Cytotoxicity of several of the tested compounds in HLC was evaluated using the sulphorhodamine B assay.

[7] = tested on: NCI-H2228 cells; test: Cell death mode (Annexin V/PI, flow cytometry); assay type: cell-based, human; details: NCI-H2228, 3 × IC50, 48 h
Source text: Flow cytometric analysis was used to assess the mode of cell death induced in NCI-H2228 cells by the tested complexes. Annexin V staining was employed to recognize the externalization of phosphatidyl serine, a feature considered an apoptotic marker. Propidium iodide (PI) was used to stain cells with compromised cell membranes (a sign of necrosis). Staurosporine was included in the experiment as a positive control for apoptosis. […] Apoptosis appears to be the leading mode of cell death in the entire group of tested compounds, with a varying distribution of cell populations between early and late apoptosis.
Staurosporine (4 μM; 2 h) was used as a positive control of apoptosis. The cells were then harvested with trypsin and stained with Annexin V-Pacific Blue conjugate (1:20 dilution) and PI (10 μg mL^–1) for 15 min. The samples were analyzed with flow cytometry (FACS Verse), 3 × 10^4 cells were analyzed following the exclusion of cell aggregates, and the data was analyzed with FCS Express 7 (DeNovo software, Glendale, CA).

[8] = Reduction by L-ascorbic acid in phosphate buffer (RP-HPLC); assay type: physicochemical
Method: The reduction of Pt(IV) complexes was performed by reacting with 10 equiv of L-ascorbic acid in 10% DMSO in 100 mM phosphate buffer (pH 7.4) at 37 °C, and was monitored by reverse-phase analytical HPLC. The half-lives for the reduction were calculated from the decreasing peak areas as a function of time.
The reduction of the Pt(IV) complexes was performed in the presence of 10 equiv of L-ascorbic acid (AA) in phosphate buffer (100 mM, pH 7.4) at 37 °C using reverse-phase analytical HPLC. […] The platinum complexes were dissolved in 10% DMSO with 50% MeOH and added to 100 mM phosphate buffer (pH 7.4). […] The samples were injected and stored at 37 °C throughout the experiment.

Row | Structure (SMILES) | phosphorylation of MET [1] | γH2AX foci (DNA damage marker) [2] | ATP released to the medium relative to nontreated cells [3] | cell cycle arrest [4] | double-stained (phagocytotic) population [5] | IC50 [6] [µM] | mode of cell death [7] | reduction half-life (t 1/2) ([8]; 10 equiv L-ascorbic acid, 10% DMSO in 100 mM phosphate buffer pH 7.4, 37 °C) [h] | solubility in phosphate buffer ([8]; 100 mM phosphate buffer pH 7.4)
1 | N.N.[Cl][Pt][Cl] [cisPt, cisplatin, reference compound] | no visible effect | detected γH2AX foci | did not induce a significant release of ATP | – | – | – | – | – | –
2 | CC(Oc1cc(-c2cnn(C3CCN(C(=O)[O][Pt]([Cl])([Cl])[O]C(=O)CCCc4ccccc4)CC3)c2)cnc1N)c1c(Cl)ccc(F)c1Cl.N.N (centres unmarked) [compound 3, ctc-[Pt(NH3)2(crizotinib)(PhB)Cl2]] | – | detected γH2AX foci | – | induced arrest in the G2/M phase | significantly increased | 5 ± 1 | apoptotic phenotype | 7.7 | –
3 | Cc1cc(Nc2ncc(Cl)c(Nc3ccccc3S(=O)(=O)C(C)C)n2)c(OC(C)C)cc1C1CCN(C(=O)[O][Pt]([Cl])([Cl])[O]C(=O)CCCc2ccccc2)CC1.N.N [compound 7, ctc-[Pt(NH3)2(ceritinib)(PhB)Cl2]] | inhibit the phosphorylation | detected γH2AX foci | 2.7 fold | majority of the population in cells treated with 7 was in the S phase | significantly increased | 4 ± 1 | apoptotic phenotype | – | poor solubility
